Data: patent publication US12581252B2, “Substituted pyrrolo[3,4-b]pyridines as PI3K-α inhibitors” (Relay Therapeutics, Inc., priority 2020, dated 2026)

Target: H1047R PIK3CA enzyme (Homo sapiens, UniProt P42336, H1047R)
Test: ADP-Glo Biochemical PIK3CA Kinase Assay

H1047R PIK3CA enzyme, sequence (P42336 whole entry H1047R): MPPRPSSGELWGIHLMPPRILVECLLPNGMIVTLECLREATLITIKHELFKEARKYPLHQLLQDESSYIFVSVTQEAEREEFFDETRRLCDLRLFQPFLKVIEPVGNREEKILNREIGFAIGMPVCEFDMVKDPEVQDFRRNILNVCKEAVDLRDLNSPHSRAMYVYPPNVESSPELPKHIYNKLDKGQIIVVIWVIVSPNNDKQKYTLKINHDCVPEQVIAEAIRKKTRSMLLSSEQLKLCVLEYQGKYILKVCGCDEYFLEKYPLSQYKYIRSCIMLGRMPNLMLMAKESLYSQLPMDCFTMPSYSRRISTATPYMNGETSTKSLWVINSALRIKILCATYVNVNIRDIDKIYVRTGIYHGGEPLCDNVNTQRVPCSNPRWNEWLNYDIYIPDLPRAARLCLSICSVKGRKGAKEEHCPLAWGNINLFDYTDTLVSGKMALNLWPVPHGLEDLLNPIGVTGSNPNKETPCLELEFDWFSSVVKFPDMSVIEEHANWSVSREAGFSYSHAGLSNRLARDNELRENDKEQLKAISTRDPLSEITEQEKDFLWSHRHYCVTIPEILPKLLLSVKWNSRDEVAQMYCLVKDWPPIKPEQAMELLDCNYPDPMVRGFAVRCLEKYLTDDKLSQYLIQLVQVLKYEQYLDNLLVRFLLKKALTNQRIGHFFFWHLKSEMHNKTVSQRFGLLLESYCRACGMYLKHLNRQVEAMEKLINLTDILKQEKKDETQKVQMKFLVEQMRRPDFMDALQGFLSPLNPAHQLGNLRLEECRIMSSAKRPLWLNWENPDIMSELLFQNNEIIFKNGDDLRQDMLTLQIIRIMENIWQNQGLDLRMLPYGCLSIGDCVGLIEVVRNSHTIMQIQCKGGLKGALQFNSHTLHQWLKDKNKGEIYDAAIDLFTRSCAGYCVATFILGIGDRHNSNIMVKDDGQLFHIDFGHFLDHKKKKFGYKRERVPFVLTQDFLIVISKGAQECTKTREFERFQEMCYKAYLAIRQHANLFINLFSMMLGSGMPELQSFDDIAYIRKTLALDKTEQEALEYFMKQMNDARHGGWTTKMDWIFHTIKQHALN
H1047R PIK3CA enzyme, sequence (P27986 whole entry partner): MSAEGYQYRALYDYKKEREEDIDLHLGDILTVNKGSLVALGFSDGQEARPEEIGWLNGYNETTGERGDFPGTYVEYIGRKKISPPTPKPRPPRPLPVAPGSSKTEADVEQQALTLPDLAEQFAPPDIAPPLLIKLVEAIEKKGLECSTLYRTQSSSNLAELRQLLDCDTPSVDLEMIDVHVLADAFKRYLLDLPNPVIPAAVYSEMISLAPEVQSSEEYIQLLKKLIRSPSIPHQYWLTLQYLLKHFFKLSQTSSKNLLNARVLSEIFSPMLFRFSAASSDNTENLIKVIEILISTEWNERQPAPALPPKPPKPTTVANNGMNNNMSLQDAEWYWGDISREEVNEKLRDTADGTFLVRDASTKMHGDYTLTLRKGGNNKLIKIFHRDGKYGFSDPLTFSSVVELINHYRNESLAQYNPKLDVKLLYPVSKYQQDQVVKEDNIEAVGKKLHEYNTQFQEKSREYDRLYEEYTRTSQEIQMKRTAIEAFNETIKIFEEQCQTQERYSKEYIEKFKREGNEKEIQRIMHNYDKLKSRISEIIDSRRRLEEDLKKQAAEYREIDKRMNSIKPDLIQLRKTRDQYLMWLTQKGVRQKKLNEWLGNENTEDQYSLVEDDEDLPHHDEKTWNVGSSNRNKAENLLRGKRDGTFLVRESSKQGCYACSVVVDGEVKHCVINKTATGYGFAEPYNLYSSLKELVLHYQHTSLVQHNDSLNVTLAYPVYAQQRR

| Structure (SMILES) | IC50 |
| --- | --- |
| O=C1N[C@@H](c2cc(F)ccc2Cl)c2c(NC(=O)N3C[C@H](O)c4cc(F)c(F)cc43)cccc21 (single isomer, unassigned) [Compound I-2291] | 1 to 10 µM |
| O=C(Nc1cc(Br)cc2c1C(c1cc(F)ccc1Cl)NC2=O)c1cc(F)cc(C(F)(F)F)c1Cl (stereo not shown) [Compound I-809] | 1 to 10 µM |
| O=C(Nc1cc(OCC2CCO2)cc2c1C(c1cc(F)ccc1Cl)NC2=O)c1cc(F)cc(C(F)(F)F)c1 (racemic) [Compound I-1366] | ≤ 0.1 µM |
| Cn1ccnc1C(C)(O)c1cc(NC(=O)c2cc(F)cc(C(F)(F)F)c2)c2c(c1)C(=O)NC2c1cc(F)ccc1Cl (stereo not shown) [Compound I-1199] | ≤ 0.1 µM |
| CC(F)c1cc(F)cc(C(=O)Nc2cc(Br)cc3c2C(c2cc(F)ccc2Cl)NC3=O)c1 (stereo not shown) [Compound I-1288] | 0.1 to 0.5 µM |
| O=C1N[C@@H](c2ccccc2Cl)c2c(NC(=O)N3C[C@](O)(C(F)(F)F)c4cc(F)ccc43)cccc21 (single isomer, unassigned) [Compound I-2686] | 10 to 100 µM |
| O=C1NC(c2cc(F)c(F)cc2C(F)F)c2c(NC(=O)c3nsc4ccc(F)cc34)cccc21 (stereo not shown) [Compound I-332] | ≤ 0.1 µM |
| O=C(Nc1cc(-n2ccnc2)cc2c1[C@H](c1cc(F)ccc1Cl)NC2=O)c1cc(F)cc(C(F)(F)F)c1 (stereo in doubt) [Compound I-1126] | ≤ 0.1 µM |
| COc1cccc2c(C(=O)Nc3cccc4c3C(c3ccccc3C)NC4=O)csc12 (stereo not shown) [Compound I-198] | 10 to 100 µM |
| Cc1ccccc1C1NC(=O)c2c(C(=O)N3CC(S(C)(=O)=O)C3)ccc(NC(=O)c3nsc4ccccc34)c21 (stereo not shown) [Compound I-225] | 0.1 to 0.5 µM |
| O=C(Nc1cc(N2CC(O)C2)nc2c1C(c1cc(F)ccc1Cl)NC2=O)c1cc(F)cc(C(F)(F)F)c1 (stereo not shown) [Compound I-575] | ≤ 0.1 µM |
| O=C1NC(c2cc(F)ccc2Cl)c2c(NC(=O)C3CCCC3)cc(-c3ccc4ncnn4c3)cc21 (stereo not shown) [Compound I-1782] | 10 to 100 µM |
| O=C1NC(c2cc(F)ccc2Cl)c2c(NC(=O)N3CCC(C(F)(F)F)CC3)cc(Br)cc21 (stereo not shown) [Compound I-430] | 1 to 10 µM |
| CN1C(=O)CC[C@@H]1COc1cc(NC(=O)c2cc(F)cc(C(F)(F)F)c2)c2c(c1)C(=O)N[C@H]2c1cc(F)ccc1Cl (single isomer, unassigned) [Compound I-1567] | ≤ 0.1 µM |
| COc1ccc([C@H](C)N2C(=O)c3cc(Br)cc(N)c3[C@@H]2c2cc(F)ccc2Cl)cc1 (racemic) [Compound I-863] | 1 to 10 µM |
| O=C1N[C@@H](c2cc(F)ccc2Cl)c2c(NC(=O)N3C[C@H](O)c4ccccc43)cc(-c3ccc4ncnn4c3)cc21 (single isomer, unassigned) [Compound I-1576] | 0.1 to 0.5 µM |
| Cc1ccccc1C1NC(=O)c2cccc(NC(=O)c3noc4c3CCCCC4)c21 (stereo not shown) [Compound I-292] | 10 to 100 µM |
| O=C(Nc1cc(C2COC2)cc2c1[C@@H](c1cc(F)ccc1Cl)NC2=O)c1cc(F)cc(C(F)(F)F)c1 [Compound I-589] | ≤ 0.1 µM |
| O=C1NC(c2cc(F)ccc2Cl)c2c(NC(=O)C3(c4cccc(Cl)c4)CCCC3)cc(Br)cc21 (stereo not shown) [Compound I-1637] | 10 to 100 µM |
| O=C1NC(c2cc(F)ccc2Cl)c2c(NC(=O)C34CCC(C(O)C(F)(F)F)(CC3)C4)cccc21 (stereo not shown) [Compound I-2285] | 10 to 100 µM |
| O=C1NC(c2cc(F)ccc2Cl)c2c(NC(=O)c3cc(F)cc4ccc(=O)[nH]c34)cc(Br)cc21 (stereo not shown) [Compound I-1424] | 1 to 10 µM |
| O=C(Nc1cccc2c1C(c1cccc3c1NCC3)NC2=O)c1cc(F)cc(C(F)(F)F)c1 (stereo not shown) [Compound I-660] | 10 to 100 µM |

| Structure (SMILES) | IC50 |
| --- | --- |
| O=C1N[C@@H](c2cc(F)ccc2Cl)c2c(NC(=O)[C@H]3C[C@H](O)C[C@@H](C(F)(F)F)C3)cc(Br)cc21 (single isomer, unassigned) [Compound I-2179] | 0.5 to 1 µM |
| O=C1NC(c2cc(F)ccc2Cl)c2c(NC(=O)C3CCC(O)CC3)cc(-c3ccc4ncnn4c3)cc21 (stereo not shown) [Compound I-1690] | 10 to 100 µM |
| CN(C(=O)Nc1cccc2c1C(c1cc(F)ccc1Cl)NC2=O)c1ccc(F)cc1 (stereo not shown) [Compound I-2435] | 10 to 100 µM |
| CC1(Cc2cc(NC(=O)N3C[C@@](O)(C(F)(F)F)c4cc(F)ccc43)c3c(c2)C(=O)N[C@H]3c2cc(F)ccc2Cl)COC1 (single isomer, unassigned) [Compound I-2660] | 10 to 100 µM |
| O=C1NC(c2cc(F)ccc2Cl)c2c(NC(=O)N3CC(O)(c4scnc4C(F)(F)F)C3)cccc21 (stereo not shown) [Compound I-2417] | 10 to 100 µM |
| N#Cc1nc(-c2cc(NC(=O)c3cc(F)cc(C(F)(F)F)c3)c3c(c2)C(=O)NC3c2cc(F)ccc2Cl)cs1 (stereo not shown) [Compound I-1311] | ≤ 0.1 µM |
| N#CN1CC(Oc2cc(NC(=O)c3cc(F)cc(C(F)(F)F)c3)c3c(c2)C(=O)NC3c2cc(F)ccc2Cl)C1 (stereo not shown) [Compound I-1205] | ≤ 0.1 µM |
| O=C(CC1CC(F)(F)C1(F)F)Nc1cc(Br)cc2c1C(c1cc(F)ccc1Cl)NC2=O (stereo not shown) [Compound I-1633] | 1 to 10 µM |
| Cn1cc(-c2cc(NC(=O)c3nsc4ccccc34)c3c(n2)C(=O)N[C@H]3c2ccccc2Cl)cn1 [Compound I-114] | 1 to 10 µM |
| CC(=O)c1cc(NC(=O)c2cc(F)cc(C(F)(F)F)c2)c2c(c1)C(=O)NC2c1cc(F)ccc1C(F)F (stereo not shown) [Compound I-238] | ≤ 0.1 µM |
| CC(=O)N1CCCC(C(=O)Nc2cc(-c3ccc4ncnn4c3)cc3c2C(c2cc(F)ccc2Cl)NC3=O)C1 (stereo not shown) [Compound I-1743] | 10 to 100 µM |
| Cc1ccccc1C1NC(=O)c2cccc(NC(=O)c3csc4cccc(F)c34)c21 (stereo not shown) [Compound I-67] | 1 to 10 µM |
| NC1CN(C(=O)Nc2cc(Br)cc3c2C(c2cc(F)ccc2Cl)NC3=O)c2ccccc21 (stereo not shown) [Compound I-2042] | 1 to 10 µM |
| O=C1N[C@@H](c2cc(F)ccc2Cl)c2c(NC(=O)c3nsc4ccccc34)cc(-c3ccc4ncnn4c3)cc21 (stereo in doubt) [Compound I-1829] | ≤ 0.1 µM |
| O=C1NC(c2cc(F)ccc2Cl)c2c(NC(=O)c3coc4c(F)cc(F)cc34)cc(Br)cc21 (stereo not shown) [Compound I-731] | ≤ 0.1 µM |
| O=C(Nc1cc(-c2cncc3ccccc23)cc2c1C(c1cc(F)ccc1Cl)NC2=O)c1cc(F)cc(C(F)(F)F)c1 (stereo not shown) [Compound I-852] | ≤ 0.1 µM |
| O=C(Nc1cc(-c2ccc3ncnn3c2)nc2c1[C@H](c1cc(F)ccc1Cl)NC2=O)c1cc(F)cc(C(F)(F)F)c1 [Compound I-1229] | ≤ 0.1 µM |
| O=C1N[C@H](c2cc(F)ccc2Cl)c2c(NC(=O)N3C[C@@H](O)c4cc(F)ccc43)cc(-n3ccnn3)cc21 (single isomer, unassigned) [Compound I-2371] | 1 to 10 µM |
| CC(=O)N[C@H]1CC[C@H](C(=O)Nc2cc(-c3ccc4ncnn4c3)cc3c2C(c2cc(F)ccc2Cl)NC3=O)CC1 (mixture of isomers) [Compound I-1850] | 10 to 100 µM |
| O=C(Nc1ccccc1)c1cc(-c2ccc3ncnn3c2)cc2c1C(c1cc(F)ccc1Cl)NC2=O (stereo not shown) [Compound I-1897] | 10 to 100 µM |
| O=C(Nc1cc(-c2ccncc2C(=O)O)cc2c1C(c1cc(F)ccc1Cl)NC2=O)c1cc(F)cc(C(F)(F)F)c1 (stereo not shown) [Compound I-1217] | 0.1 to 0.5 µM |
| O=C(Nc1cccc2c1[C@@H](C[C@@H]1CCCCN1)NC2=O)c1cc(F)cc(C(F)(F)F)c1 (single isomer, unassigned) [Compound I-2281] | 10 to 100 µM |

| Structure (SMILES) | IC50 |
| --- | --- |
| Cc1ccccc1[C@H]1NC(=O)c2nccc(NC(=O)N3C[C@@H](C)c4ccccc43)c21 (single isomer, unassigned) [Compound I-301] | 0.5 to 1 µM |
| Nc1nc2cc(-c3cc(NC(=O)c4cc(F)cc(C(F)(F)F)c4)c4c(c3)C(=O)NC4c3cc(F)ccc3Cl)ccn2n1 (stereo not shown) [Compound I-1370] | ≤ 0.1 µM |
| O=C(Nc1cc(-c2ccc3nnc(C(F)F)n3c2)cc2c1C(c1cc(F)ccc1Cl)NC2=O)c1cc(F)cc(C(F)(F)F)c1 (stereo not shown) [Compound I-1840] | ≤ 0.1 µM |
| O=C1NC(c2cc(F)ccc2Cl)c2c(NC(=O)C3(c4ccccc4)CCCC3)cc(Br)cc21 (stereo not shown) [Compound I-604] | 1 to 10 µM |
| O=C(Nc1cc(Br)cc2c1[C@H](c1c(F)cccc1Cl)NC2=O)c1cc(F)cc(C(F)(F)F)c1 [Compound I-680] | ≤ 0.1 µM |
| O=C1NC(c2cc(F)ccc2Cl)c2c(NC(=O)C3(c4ccccc4)COC3)cc(Br)cc21 (stereo not shown) [Compound I-632] | 10 to 100 µM |
| O=C1N[C@H](c2cc(F)ccc2Cl)c2c1cc(-c1ccc3ncnn3c1)cc2S(=O)(=O)Cc1ccccc1 (single isomer, unassigned) [Compound I-1905] | 1 to 10 µM |
| O=C(Nc1cc(CS(=O)(=O)N2CCC2)cc2c1C(c1cc(F)ccc1Cl)NC2=O)c1cc(F)cc(C(F)(F)F)c1 (stereo not shown) [Compound I-1399] | ≤ 0.1 µM |
| CN=S(C)(=O)Cc1cc(NC(=O)c2cc(F)cc(C(F)(F)F)c2)c2c(c1)C(=O)NC2c1cc(F)ccc1Cl (stereo not shown) [Compound I-1434] | ≤ 0.1 µM |
| Cc1ccccc1[C@@H]1NC(=O)c2nccc(NC(=O)N3C[C@H](C)c4ccccc43)c21 (single isomer, unassigned) [Compound I-300] | 0.1 to 0.5 µM |
| O=C1NC(c2cc(F)ccc2Cl)c2c(NC(=O)[C@H](O)c3cc(F)cc(F)c3)cc(Br)cc21 (single isomer, unassigned) [Compound I-804] | 10 to 100 µM |
| COCc1cc(F)cc(C(=O)Nc2cc(Br)cc3c2C(c2cc(F)ccc2Cl)NC3=O)c1 (stereo not shown) [Compound I-1316] | 1 to 10 µM |
| N#CCn1ccnc1-c1cc(NC(=O)c2cc(F)cc(C(F)(F)F)c2)c2c(c1)C(=O)NC2c1cc(F)ccc1Cl (stereo not shown) [Compound I-1454] | 0.1 to 0.5 µM |
| O=C(Nc1cc(Br)cc2c1C(c1cc(F)ccc1Cl)NC2=O)c1ccc(F)c(Cl)c1 (stereo not shown) [Compound I-565] | 0.5 to 1 µM |
| O=C(Nc1cc(F)cc(C(F)(F)F)c1)c1cccc2c1C(c1cc(F)ccc1Cl)NC2=O (stereo not shown) [Compound I-1353] | 1 to 10 µM |
| NC1(C(F)(F)F)CC(C(=O)Nc2cc(Br)cc3c2C(c2cc(F)ccc2Cl)NC3=O)C1 (stereo not shown) [Compound I-1632] | 10 to 100 µM |
| CS(=O)(=O)CCCOc1cc(NC(=O)c2cc(F)cc(C(F)(F)F)c2)c2c(c1)C(=O)NC2c1cc(F)ccc1Cl (stereo not shown) [Compound I-735] | 0.1 to 0.5 µM |
| Cn1ncc(-c2cc(NC(=O)c3cc(F)cc(C(F)(F)F)c3)c3c(c2)C(=O)N[C@H]3c2cc(F)ccc2Cl)c1C#N [Compound I-1795] | ≤ 0.1 µM |
| O=C(Nc1cc(N2CCC(F)(F)C2)nc2c1C(c1cc(F)ccc1Cl)NC2=O)c1cc(F)cc(C(F)(F)F)c1 (stereo not shown) [Compound I-357] | ≤ 0.1 µM |
| COc1ccc2c(C(=O)Nc3cccc4c3C(c3ccccc3C)NC4=O)csc2c1 (stereo not shown) [Compound I-79] | 10 to 100 µM |
